Experimental data from US7094770B2, “3′-or 2′-hydroxymethyl substituted nucleoside derivatives for treatment of hepatitis virus infections” (Pharmasset, Ltd., priority 2000, dated 2006).
Like-named read-outs stand apart in the source and are kept apart here.

What was measured:
HBV [1] = settings: background statement; cited from earlier work
HIV = settings: literature; cited from earlier work
PBM cells = test: Cytotoxicity in PBM cells; format: cell-based, human
Experimental: (§1) We also perform toxicity assays by measuring the inhibition of uptake of […] dye by treated cells. These assays are done in 96 well plates. After the standard 10 day treatment regimen medium is removed and PBS containing MTS dye added to each well. After a 2 hour incubation the absorbance of the metabolized product is measured at 490 nm.
(§2) Human PBM cells from healthy donors, seronegative for HIV-1 and HBV, are isolated by a single-step Ficoll-Hypaque discontinuous gradient centrifugation and propagated as described previously (Schinazi et al., Antimicrobial Agents Chemother., 1990, 34:1061; 1992, 36:2423; 1993, 37:875). Compounds are screened for activity against HIV-1 and cytotoxicity by a protocol reported previously reported by Schinazi, et al. The prototype strain of HIV-1LAI obtained from the Centers for Disease Control and Prevention, Atlanta, Ga., is used as the standard virus for the studies in human PBM cells.

Vero cells = test: Cytotoxicity in Vero cells; format: cell-based
Experimental: as §1

HBV [2] = test: Cell culture assay for anti-HBV activity (2.2.15 cells, HBV DNA in medium by Southern blot); format: cell-based, Hepatitis B virus; settings: for EC50: read-out: Anti-HBV EC50
Description: We follow the protocol described by Korba and Gerin(Antiviral Res., 1992, 19:55) and Pai et al. (Antimicrobial Agents Chemother., 1996, 40:380) which is used widely in the field. The HepG 2 2.2.15 cells contain a stably integrated HBV genome, the transcript from which serves as a template for viral replication. The cells produce virions which are elaborated into the medium. The production of the virion DNA is monitored by analysis of medium by Southern blotting. Drugs which inhibit viral replication reduce the levels of virion DNA in the medium, relative to controls.
Confluent cells in 24 well tissue culture dishes are treated with test compounds starting at 1 nM and extending logarithmically to 10 μM (1 nM, 3.2, 10 nM, 32, 100 nM, 1 μM, 10 μM […]). Medium is changed […] every 3 days and DNA extracted from the 3, 6, and […] day samples. The virions are concentrated by polyethylene glycol precipitation (equal volume addition of PEG 8000). After cooling on ice the samples are spun and the pellets treated with SDS and Proteinase K followed by Phenol:Chloroform extraction and ethanol precipitation of the DNA. The DNA is analyzed for HBV sequences by Southern hybridization. The probe used for the analysis is a ^32P labeled Eco RI fragment from the HBV clone described by Korba et al. 3TC is used as a positive control compound with known activity against HBV.
System: The most widely used system for the study of anti-HBV agents is the hepatoma cell culture system with the HBV genome. These cells are designated as the 2.2.15 cells, AD38 cells and AD79 cells. The 2.2.15 cells were generated by the transfection of the human hepatoma cells—HepG2 with HBV DNA. (Sells, et al., Proc. Natl. Acad. Sci. USA 84:1005–1009, 1987) HBV viral replication takes place in these cells. The HBV replication can be monitored intracellularly as well as extracellularly in these cells.
Assay for Anti-HBV agents: 2.215 cells are grown in multi-well dishes in RPMI medium supplemented with 4% fetal bovine serum. After 3 to 4 days of growing the cells, they are treated with varying concentrations of the test compound(s). The test compounds are dissolved in DMSO or sterile water. Cultures without the addition of the test compounds serve as controls. The addition of the test compound(s) is repeated at 3-day intervals. The medium is changed and replaced with appropriate concentration of the test compound. At the end of the 9-day treatment period, the culture medium is harvested and processed for viral DNA. The viral DNA thus obtained is analyzed by Southern blot analysis. After the Southern transfer, the blot is subjected to hybridization to an HBV specific probe to detect HBV DNA. The hybriodization is carried out overnight. After the hybridization, free probe is removed by washing of the blots. The specific hybridization is visualized by autoradiography. Inhibition produced by the test compound is calculated with reference to the levels of HBV DNA in the control samples.

HIV-1 = test: Anti-HIV evaluation in human PBM cells; format: cell-based; settings: HIV-1
Description: as §2

[3] = Cytotoxicity in CEM cells; format: cell-based; settings: human
Experimental: as §1

[4] = test system: human cytomegalovirus (HCMV); settings: literature; cited from earlier work
HSV-2 = settings: literature; cited from earlier work
HSV-1 = settings: literature; cited from earlier work
[5] = test system: Varicella zoster virus (VZV); settings: literature; cited from earlier work
Epstein Barr virus (EBV) = settings: literature; cited from earlier work
[6] = test system: murine leukemia virus (MuLV); settings: literature; cited from earlier work
[7] = target: reverse transcriptase of human immunodeficiency virus (Human immunodeficiency virus type 1 group M subtype B, UniProt P03366); settings: tested as the 5′-triphosphate; cited from earlier work
HSV = settings: literature; cited from earlier work

Structure (SMILES) | Activity against HIV (in words) (HIV) | IC50 (PBM cells) | IC50 (Vero cells) | EC50 (HBV [2]) | EC50 (HIV-1) | also measured
O=c1[nH]c(=O)n([C@@H]2O[C@H](CO)[C@@H](O)[C@@H]2F)cc1I [Fialuridine] | devoid of activity |  |  |  |  | Activity against HBV (in words) (HBV [1]): effectively inhibit replication
Cc1cn(C2CC(CO)N(C)O2)c(=O)[nH]c1=O (stereo not shown) [Compound 40 (Series 2)] |  | > 100 µM | > 100 µM | > 10 µM | > 100 µM | 
Nc1nc(=O)n([C@@H]2O[C@H](CO)[C@@H](O)[C@@H]2F)cc1I [Fiacitabine] | devoid of activity |  |  |  |  | Activity against HBV (in words) (HBV [1]): effectively inhibit replication
Cc1cn(C2OC(CO)C(CO)C2F)c(=O)nc1N (stereo not shown) [Compound 11 (Series 2)] |  | > 100 µM | > 100 µM | < 10 µM | 112 µM | Antiviral activity (in words) (HBV [2]; virus not named): moderate activities; IC50 at 10 day [3]: > 100 µM
Cc1cn([C@H]2C[C@H](CO)[C@@H](CO)O2)c(=O)[nH]c1=O [3′-deoxy-3′-hydroxymethylthymidine] | devoid of activity |  |  |  |  | Activity against HCMV (in words) [4]: devoid of activity; Activity against HSV-2 (in words) (HSV-2): devoid of activity; Activity against HBV (in words) (HBV [2]; "we discovered"): potent agent; Activity against HSV-1 (in words) (HSV-1): devoid of activity; Activity against VZV (in words) [5]: devoid of activity; Activity against EBV (in words) (Epstein Barr virus (EBV)): devoid of activity; Activity against MuLV (in words) [6]: devoid of activity
CN(O)C1C(CO)OC(n2cc(F)c(=O)[nH]c2=O)C1F (stereo not shown) [Compound 61 (Series 2)] |  | > 100 µM | > 100 µM | > 10 µM | 52.3 µM | 
CO[C@H]1C[C@H](n2cc(C)c(=O)[nH]c2=O)O[C@@H]1CO [3′-O-methylthymidine] | inactive |  |  |  |  | Inhibition of HIV reverse transcriptase (in words) [7]: exceptionally potent inhibitor
O=c1[nH]c(=O)n(C2O[C@H](CO)[C@@H](CO)[C@@H]2O)cc1C=CBr (stereo partly drawn) [5-bromovinyl-1-(3-deoxy-3-hydroxymethyl-D-arabinofuranosyl)-uracil] |  |  |  |  |  | Activity against HSV (in words) (HSV): active
Cc1cn([C@H]2C[C@H](N=[N+]=[N-])[C@@H](CO)O2)c(=O)[nH]c1=O [Zidovudine] |  |  |  |  |  | Activity against HBV (in words) (HBV [1]): inactive; Inhibition of HIV reverse transcriptase (in words) [7]: potent inhibitor
Nc1ccn([C@H]2C[C@H](CO)[C@@H](CO)O2)c(=O)n1 [2′,3′-dideoxy-3′-hydroxymethyl-cytidine] | good activity |  |  |  |  | Activity against HSV (in words) (HSV): active
Cc1cn(C2CC(CO)C(CO)O2)c(=O)[nH]c1=O (stereo not shown) [Compound 4 (Series 1)] |  | > 100 µM | > 100 µM | > 10 µM | 87.7 µM | 
